Earlier results on one compound are cited in patent US11298325B2, “Pharmaceutical compositions of pimobendan” (Boehringer Ingelheim Vetmedica GmbH, priority 2013, dated 2022).

For data set [1] the following is noted: low solubility and low permeability.
For data set [2] the following is noted: pH 5.

With `COc1ccc(-c2nc3ccc(C4=NNC(=O)CC4C)cc3[nH]2)cc1` (centres unmarked) [pimobendan], in data set [1], the “Class in the Biopharmaceutics Classification Systems” value is recorded as “Class IV”. Further, the Solubility in water entry in data set [2] is reported as “about 1 mg/liter”.
